Assay [1] concerns the target T1, Ram seminal vesicle microsomal cyclooxygenase (Ovis aries, UniProt P05979).
T1 construct: Ram seminal vesicular glands were trimed of excess fat; from tissue; host or cells: ram seminal vesicular glands, microsomes (105K×g pellet)
T1 sequence (P05979 25-600): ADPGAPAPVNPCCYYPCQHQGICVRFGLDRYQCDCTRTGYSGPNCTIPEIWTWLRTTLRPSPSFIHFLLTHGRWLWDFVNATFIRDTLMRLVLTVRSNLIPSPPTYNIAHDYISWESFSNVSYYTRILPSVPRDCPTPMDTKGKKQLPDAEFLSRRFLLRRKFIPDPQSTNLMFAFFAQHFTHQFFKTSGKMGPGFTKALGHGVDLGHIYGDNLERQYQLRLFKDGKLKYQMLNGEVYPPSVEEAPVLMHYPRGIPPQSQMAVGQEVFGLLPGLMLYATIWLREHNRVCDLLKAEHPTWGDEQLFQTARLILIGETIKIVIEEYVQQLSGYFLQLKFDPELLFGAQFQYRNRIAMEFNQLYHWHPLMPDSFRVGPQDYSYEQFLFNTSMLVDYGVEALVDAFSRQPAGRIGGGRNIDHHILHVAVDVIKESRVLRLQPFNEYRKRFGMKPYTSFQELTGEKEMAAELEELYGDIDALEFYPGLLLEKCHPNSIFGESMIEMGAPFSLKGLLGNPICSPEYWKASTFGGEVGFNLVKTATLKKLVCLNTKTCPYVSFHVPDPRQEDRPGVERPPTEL
The assay is described as follows: Ram Seminal Vesicle Microsomal Cyclooxygenase Assay (RSV CO). In kind it is biochemical. The following applies: for IC50: RSV cyclooxygenase, mean values of at least two titrations; for activity in the CO assay: reference compounds. On the procedure:
Compounds of formula I were also evaluated in accordance with the ram seminal vesicle microsomal cyclooxygenase (RSV CO) assay.
Ram Seminal Vesicle Microsomal Cyclooxygenase Assay (RSV CO)
Ram seminal vesicular glands were trimed of excess fat, 50 gm diced into ice cold 0.1M potassium phosphate (pH 7.6) buffer and homoginized using a Brinkman Polytron. The suspension was centrifuged 10 min. at 10K×g (4°) and the supernatant filtered through two cheesecloth layers. The filtrate was centrifuged 160 min. at 105K×g. The supernatant was discarded and the pellet surface rinsed with a small volume of buffer. The pellets were combined in a small volume, briefly homoginized with the Polytron and frozen in 0.5 mL aliquots at -80°. The protien concentration was ~50 mg/mL. […] The thawed enzyme was diluted 1:63 with 0.125M sodium EDTA (pH 8.0) containing 50 mg/ml BSA. A substrate cofactor premix was prepared with 66 mL 14C-arachidonic acid (~20K cpm/12.5 mL) in 500 mL 0.125 M sodium EDTA (pH 8.0) plus 10 mL 50 mM hydroquinone and 10 mL 200 mM glutathione. To each sample well in the 96 well plate agents were added disolved in 0.5 mL DMSO followed by 12.5 mL of the diluted enzyme. After a 4 minute preincubation at room temperature 12.5 mL of the substrate cofactor mix was added to start the reaction. The reaction was killed after 20 minutes at room temperature by adding 25 mL methanol containing 200 mg PGE2 and 400 mg AA per mL. The entire reaction mixture was spotted onto a preadsorbent silica gel GF thin layer plate and, after air drying 45 minutes developed 12 cm in ethyl acetate:glacial acetic acid (99:1). The developed lanes were scanned for the distribution of radiolabel using a Bioscan Imaging Detector and the integrated peaks compared to standards and controls yielding percent inhibition.

Assay [2] relates to LTB4 production in PMN (LO). Put plainly: PMN LTB4 Assay (inhibition of LTB4 production in rat PMN). The following applies: for IC50: leukotriene biosynthesis in rat PMN, mean values of at least two titrations. In kind it is cell-based, male Sprague-Dawley rats. On the procedure:
Male Sprague-Dawley rats (~350 g) were injected intraperitoneally the day before use with 8 mL of 12% sodium caseinate. The next day the animals were killed by CO2 asphyxiation and the peritoneal cavity lavaged twice with 20 mL of Hanks balanced salts containing 15 mM HEPES (pH 7.4), 1.4 mM Ca^++ and 0.7 mM Mg^++ (Hepes-Hanks). The suspensions were filtered through plastic mesh and centrifuged at 260×g for 5 minutes. The cells were resuspended in 50 ml Hepes-Hanks and recentrifuged. The PMN pellets were combined and suspended at 1.25×10^7 cells/mL. The cell suspension was diluted 1:10, preincubated 5 minutes at 37° and distributed into 96 well microtiter plates with […]. The wells had previously received samples, controls, ect., in 25 mL of 0.001% fatty acid free BSA in Hepes-Hanks. The plates were incubated 2 min. at 37° and then the cells were stimulated to produce LTB4 by the addition of 25 mL of […]. After 4 minutes the plates were frozen in dry ice. The frozen plates were thawed to 4° and 25 mL aliquots removed to V-well plates. Antibody to LTB4 (50 mL) was added in and after 15 minutes at room temperature, 50 mL of ^3 H-LTB4 was added and the plates were stored overnight at 4° to allow equilibration. The next day the "free" 3HLTB4 was removed by adsorption to dextran coated charcoal ([…]/well of a 4% charcoal suspension with 0.25% Dextran T-70 in 10 mM potassium phosphate (pH 7.3) containing 1 mM EDTA and 0.25 mM thimerasol) durring a 10 minute ice temperature incubation. The charcoal was removed by a 10 minute centrifugation at 260×g. Aliquots of the supernatant were counted in a Packard 460, analyzed in a Masscomp computer (programs "filhariala and fhariasa") and the data reported as percent inhibition of LTB4 production.

Assay [3] addresses cyclooxygenase. As to conditions: bovine seminal vesicle microsomal enzyme preparation; read-out: IC50 against cyclooxygenase; cited from earlier work.
The next assay concerns 5-lipoxygenase. The following applies: cited from earlier work.
In assay [4] the test system is animal models of inflammation. The following applies: several animal models; cited from earlier work.
Assay [5] relates to LTB4 biosynthesis in intact rat PMN. The following applies: cited from earlier work.
The test system of assay [6] is cyclooxygenase. The following applies: cited from earlier work.

Where two headings read alike, the source gives them in different places.

A word on the IC50: it is the concentration at which inhibition is half-maximal. Turning to `Cc1coc2c(C(=O)c3ccc(Cl)cc3)cc(C(C)(C)C)c(O)c12` [Compound 19, 3-Methyl-4-hydroxy-5-tert-butyl-7-p-chlorobenzoylbenzofuran], the IC50 in assay [1] came to 1200 nM; in assay [2], 4400 nM.
One may read the inhibition as the change of the read-out against control, counted positive when it falls. For the compound `Cc1coc2c(C(C)(C)C)ccc(O)c12` [Compound 10a, 3-Methyl-4-hydroxy-7-tert-butylbenzofuran], the inhibition at 1000 µg/mL in assay [1] (read-out: % inhibition (CO)) came to 1%. In assay [2], this compound yielded an IC50 of 2100 nM.
With `Cc1coc2c(C(=O)c3cccs3)cc(C(C)(C)C)c(O)c12` [Compound 14, 3-Methyl-4-hydroxy-5-tert-butyl-7-(2-thienoyl)-benzofuran], the results for the IC50 in assay [1] and in assay [2] were 1000 nM and 1500 nM, respectively.
On to `CC(C)Cc1ccc(C(C)C(=O)O)cc1` (centres unmarked) [ibuprofen, reference compound], for which the “activity in the CO assay” value in assay [1] is “displaying activity”.
In the case of `Cc1coc2c(C(=O)c3ccccc3)cc(C(C)(C)C)c(O)c12` [Compound 16, 3-Methyl-4-hydroxy-5-tert-butyl-7-benzoylbenzofuran], the values for the IC50 in assay [1] and in assay [2] were 1300 nM and 1100 nM, respectively.
The matching figures for `Cc1coc2c(C(=O)c3ccccc3)ccc(O)c12` [Compound 6, 3-Methyl-4-hydroxy-7-benzoylbenzofuran]: 1300 nM and 3500 nM.
Turning to `CC(C)(C)c1cc(C(=O)c2cccs2)cc(C(C)(C)C)c1O` [A, 2,6-di-tert-butyl-4-(2-thienoyl) phenol], the IC50 on cyclooxygenase [3] was 500 nM; at 5-lipoxygenase (guinea pig lung, read-out: IC50 against guinea pig lung 5-lipoxygenase), 20000 nM. Besides, the “potency at inhibiting guinea pig lung 5-lipoxygenase relative to cyclooxygenase” value in the assay with 5-lipoxygenase (compared with bovine seminal vesicle cyclooxygenase) is recorded as “fortyfold less potent”. The “antiinflammatory activity in animal models of inflammation” value in assay [4] was “novel antiinflammatory agent in several animal models of inflammation”.
On to `Cc1coc2c(C(C)(C)C)cc(C(C)(C)C)c(O)c12` [Compound 10b, 3-Methyl-4-hydroxy-5,7-di-tert-butylbenzofuran], for which the inhibition at 10000 µg/mL in assay [1] (read-out: % inhibition (CO)) came to 0%. The compound also had an inhibition at 1000 µg/mL in assay [2] (Rattus norvegicus, at 1 mg/ml) of 37%.
Turning to `CCCc1cc(C(=O)c2cccs2)c2occ(C)c2c1O` [Compound 5, 3-Methyl-4-hydroxy-5-propyl-7-(2-thienoyl)benzofuran], the IC50 in assay [1] stood at 1300 nM; in assay [2], 1700 nM.
In the case of `Cc1coc2ccc(C(C)(C)C)c(O)c12` [Compound 12b, 3-Methyl-4-hydroxy-5-tert-butylbenzofuran], the results for the IC50 in assay [1] and in assay [2] were 54000 nM and 600 nM, respectively.
As for `COc1ccc2c(c1)c(CC(=O)O)c(C)n2C(=O)c1ccc(Cl)cc1` [indomethacin, reference compound], the “activity in the CO assay” value in assay [1] is “displaying activity”.
Regarding `CCCc1cc(Cl)c2oc(Cc3ccccc3)c(C)c2c1O` [Compound B], the half-maximal inhibitory concentration (IC50) in assay [5] is 240 nM; on cyclooxygenase [6] (RSV CO), 25000 nM. Besides, the “potency on cyclooxygenase relative to LTB4 biosynthesis inhibition (selectivity)” value with cyclooxygenase [6] (RSV CO versus intact rat PMN) was “a hundred times less potent”.
As for `Cc1coc2c(C(=O)c3cccs3)ccc(O)c12` [Compound 3, 3-Methyl-4-hydroxy-7-(2-thienoyl)benzofuran], the IC50 in assay [1] came out at 800 nM; in assay [2], 2700 nM.
The matching figures for `C=CCc1cc(C(=O)c2cccs2)c2occ(C)c2c1O` [Compound 4, 3-methyl-4-hydroxy-5-(2-propen-1-yl)-7-(2-thienoyl)benzofuran]: 5600 nM and 6700 nM.

(Values after patent US5006549A, “Novel 7-aroyl-4-hydroxy-3-methyl-benzofurans as dual inhibitors of cyclooxygenase and 5-lipoxygenase” (priority 1989, dated 1991).)
